Measured values as given in PMC12526720, “Hydralazine inhibits cysteamine dioxygenase to treat preeclampsia and senesce glioblastoma” (Science Advances, 2024).
Structures can show the parent of a compound that is named as a salt.

Legend:
[1] = target: T1, 2-aminoethanethiol dioxygenase (ADO) (Homo sapiens, UniProt Q96SZ5); assay: O2 consumption (oxygen electrode) with purified Fe(II)•ADO, global fit; EPR of Co(II)•ADO also supports binding; type: biochemical
T1 construct: WT hADO (NP_116193.2), His6 tag cleaved with TEV
T1 sequence (Q96SZ5 1-270): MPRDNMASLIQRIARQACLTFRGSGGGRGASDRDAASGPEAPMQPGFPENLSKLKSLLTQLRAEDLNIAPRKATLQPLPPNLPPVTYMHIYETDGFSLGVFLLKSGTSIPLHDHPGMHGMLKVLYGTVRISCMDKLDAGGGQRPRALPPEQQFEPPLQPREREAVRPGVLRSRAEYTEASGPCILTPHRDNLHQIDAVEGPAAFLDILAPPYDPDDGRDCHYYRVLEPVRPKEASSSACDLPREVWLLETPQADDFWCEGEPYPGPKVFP

[2] = target: T2, mouse ADO (Mus musculus, UniProt Q6PDY2); assay: quantitative chemoproteomics in RAW […] and Neuro 2a cells, and in mouse heart and brain; type: cell-based
T2 construct: endogenous
T2 sequence (Q6PDY2 1-256): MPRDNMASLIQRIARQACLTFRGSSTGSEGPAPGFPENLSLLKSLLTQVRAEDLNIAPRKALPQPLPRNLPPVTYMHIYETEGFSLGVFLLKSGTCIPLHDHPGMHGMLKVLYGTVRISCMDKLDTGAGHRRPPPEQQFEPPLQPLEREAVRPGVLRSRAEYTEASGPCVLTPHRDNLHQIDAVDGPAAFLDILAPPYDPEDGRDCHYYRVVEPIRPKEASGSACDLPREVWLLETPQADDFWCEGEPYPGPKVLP

## NNc1nncc2ccccc12 [HYZ, Hydralazine]
[1]
  Ki: 2.48 ± 0.42 µM

## C#CCOCc1ccc2c(NN)nncc2c1 [HYZyne, 1-hydrazineyl-6-((prop-2-yn-1-yloxy)methyl)phthalazine hydrochloride]
[2]
  quantitative chemoproteomics in RAW 264.7 and Neuro 2a cells, and in mouse heart: mouse ADO was also identified as a primary, high-reactivity, and high-stoichiometry target of HYZyne in both mouse cell types
